Results published in US5444056A, “Aminoalkoxyphenyl derivatives, process for their preparation and compositions containing them” (Sanofi, priority 1989, dated 1995).
Structures can show the parent of a compound that is named as a salt.

Assays:
[1] = system: contractile response to potassium-induced depolarization on isolated rat aorta; assay: Calcium inhibitory properties: antagonism of contractile response to potassium-induced depolarization on isolated rat aorta; design: species or system rat (male Wistar); details: percent of maximal contraction before incubation, 60 min
Description: It is well established that the depolarization of a smooth muscle membrane by potassium makes the latter permeable to extracellular calcium and induces muscle contraction. Consequently, the measurement of inhibition of the contractile response to depolarization by potassium or the measurement of relaxation of the tonic contraction on potassium depolarization can provide an evaluation of the potency of a compound as an inhibitor of the membrane permeability to Ca^++ ions. The technique used is the following: The aorta is removed from male Wistar rats weighing about 300 g and cut into strips approximately 40 mm long and 3 mm wide. These fragments are placed in a 25 ml isolated organ bath containing modified Krebs-bicarbonate solution (112 mM NaCL; 5 mM KCl; 25 mM NaHCO3; 1 mM KH2 PO4; 1.2 mM MgSO4; 2.5 mM CaCl2; 11.5 mM glucose, made up to 1000 ml with distilled water) maintained at 37° C. and through which a stream of carbon dioxide is passed. The preparation is connected to a force microsensor and the contractile response is recorded after amplification on a recorder. A tension of 2g is applied to the preparation. This latter is maintained in the modified Krebs-bicarbonate solution for 60 minutes, and then contractions are induced by replacing the Krebsbi-carbonate solution by a Krebs-potassium solution (17 mM NaCl; 100 mM KCl; 25 mM NaHCO3; 1 mM KH2 PO4; 1.2 mM MgSO4; 2.5 mM CaCl2; 11.5 mM glucose; made up to 1000 ml with distilled water). When the contractile response of the preparation has become reproducible, a given amount of the compound of the invention is introduced into the bath. Sixty minutes later a new spasm is induced by potassium depolarization. The results obtained on the aorta under investigation are then expressed in percent of the maximal contractional effect before incubation with the test substance. As examples, the following results were obtained, the compounds of formula (1) being in the form of the free base, the hydrochloride, oxalate or fumarate.

[2] = system: increase in blood pressure induced by epinephrine (anti-α effect); assay: Anti-α effect: reduction of epinephrine-induced increase in blood pressure in anesthetized atropinized dog; type: in vivo; design: key: +: for a reduction <50%; ++: for a reduction ≥50%; +++: for an almost complete reduction
Procedure: The aim of this test is to determine the capacity of the compounds of the invention to reduce the increase in blood pressure induced by epinephrine (anti-αeffect) and the acceleration of the heart rate induced by isoprenaline (anti-βeffect) in the dog previously anesthetized with pentobarbital and atropinized. First, are determined for each dog the dose of epinephrine (between 3 and 10 μg/kg) which causes a reproducible increase in arterial blood pressure of about 133.10^2 Pa and the dose of isoprenaline (1 to 2 μg/kg) which causes a reproducible increase in the heart rate of about 70 beats/minute. The doses of epinephrine and isoprenaline thus determined are injected alternatively every ten minutes and after the two consecutive reference responses have been obtained, a quantity of the test compound is administered by the intravenous route. The percentage reduction of the hypertension caused by the test compound in comparison with the reference hypertension previously obtained (about 100 mm Hg) is recorded. In both cases, the results of the reduction in arterial pressure and heart rate are expressed as follows: […]

SMILES	% maximal contractional effect ([1]; 10^-7 M, 0.1 µM)	% maximal contractional effect ([1]; 10^-8 M, 0.01 µM)	% maximal contractional effect ([1]; 10^-9 M, 0.001 µM)	other results
COc1ccc(CCN(C)CCCOc2ccc(S(=O)(=O)c3c(C(C)C)n(C)c4ccc(Cl)cc34)cc2)cc1OC [Ex. 13, 3-{4-[3-(N-methyl N-3,4-dimethoxy-β-phenethylamino)propoxy]benzenesulfonyl} 5-chloro 2-isopropyl 1-methylindole]	35,5%	79,2%		Anti-α effect ([2]; intravenous, 0,6 mg/kg): +++
CCCCN(CCCC)CCCOc1ccc(S(=O)(=O)c2c(C(C)C)n(C)c3ccc(Cl)cc23)cc1.O=C(O)C(=O)O [Ex. 44, 1-methyl 2-isopropyl 3-{4-[3-(di-n-butylamino)propoxy]benzenesulfonyl} 5-chloro indole hydrogen oxalate]	69,6%	85,7%		Anti-α effect ([2]; intravenous, 1,2 mg/kg): ++ (for a reduction ≥50%)
CC(C)c1c(S(=O)(=O)c2ccc(OCCCN(C)C3CCCc4ccccc43)cc2)c2cc(Cl)ccc2n1C.O=C(O)C(=O)O (centres unmarked) [Ex. 47, 1-methyl 2-isopropyl 3-{4-[3-(N-methyl N-1,2,3,4-tetrahydronaphth-1-ylamino)propoxy]benzenesulfonyl} 5-chloro indole hydrogen oxalate]	75,3%	88,3%	91,4%	Anti-α effect ([2]; intravenous, 6,6 mg/kg): ++ (for a reduction ≥50%)
CCCCN(CCCC)CCCOc1ccc(S(=O)(=O)c2c(C)nn3cccc(C)c23)cc1.O=C(O)C(=O)O [Ex. 49, 3-{4-[3-(di-n-butylamino)propoxy]benzenesulfonyl} 2,4-dimethyl pyrazolo[1,5-a]pyridine hydrogen oxalate]		62,9%	75,7%	Anti-α effect ([2]; intravenous, 0,28 mg/kg): + (for a reduction <50%)
COc1ccc(CCN(C)CCCOc2ccc([S+]([O-])c3c(C(C)C)c4cc(Cl)ccc4n3C)cc2)cc1OC (stereo not drawn) [Ex. 56, (5-chloro 3-isopropyl 1-methylindo-2yl)4-[3-(N-methyl N-3,4-dimethoxy-β-phenethylamino)propoxy]phenyl sulfoxide hydrogen oxalate]	19,8%	61,3%	78,6%	Anti-α effect ([2]; intravenous, 0,67 mg/kg): +++
CCCCN(CCCC)CCCOc1ccc(S(=O)(=O)c2c(C(C)C)c3cc(OC)ccc3n2C)cc1.O=C(O)C(=O)O [Ex. 64, 2-{4-[3-(di-n-butylamino)propoxy]benzenesulfonyl} 3-isopropyl 5-methoxy 1-methyl indole hydrogen oxalate]	69,3%	72,6%	93,9%	Anti-α effect ([2]; intravenous, 0,5 mg/kg): +++
CCCCN(CCCC)CCCOc1ccc(S(=O)(=O)c2c(C(C)C)cn3cccc(C)c23)cc1 [Ex. 75, 1-{4-[3-(di-n-butylamino)propoxy]benzenesulfonyl} 2-isopropyl 8-methyl indolizine]		9,7%	51,4%	% maximal contractional effect ([1]; 10^-10 M, 0.0001 µM): 83,8%; Anti-α effect ([2]; intravenous, 0,02 mg/kg): ++ (for a reduction ≥50%)
COc1ccc(CCN(C)CCCOc2ccc(S(=O)(=O)c3c(C(C)C)cn4c(C)cccc34)cc2)cc1OC [Ex. 79, 2-Isopropyl 5-methyl 1-{4-[3-(N-methyl N-3,4-dimethoxy-β-phenethylamino)propoxy]benzenesulfonyl}indolizine]		29,8%	77,9%	% maximal contractional effect ([1]; 10^-10 M, 0.0001 µM): 87,3%; Anti-α effect ([2]; intravenous, 0,07 mg/kg): +++
